Laboratory results published in ChEMBL document CHEMBL5579888, “A Comparative Study on the DNA Interactions and Biological Activities of Benzophenanthridine and Protoberberine Alkaloids” (J Nat Prod, 2024).
Calls of active or inactive are those of the source. The rule behind the calls is not given here.

Columns and labels:
Quadruplex DNA [1] = assay: Binding affinity to human G4-quadruplex Pu27 DNA 5'- TGGGGAGGGTGGGGAGGGTGGGGAAGG-3' assessed as change in fluorescence intensity at 1 uM incubated for 0.5 hrs in presence of different concentrations of DNA by fluorescence spectra analysis; type: nucleic-acid assay
dsDNA [2] = assay: Binding affinity to double stranded DNA ssab1 (unknown origin) incubated for 0.5 hrs in presence of different concentration DNA by fluorescence spectra analysis; type: nucleic-acid assay
Quadruplex DNA [3] = assay: Displacement of ThT from human G4-quadruplex Bcl2 DNA 5'- CGGGCGCGGGAGGAAGGGGGCGGGAGC-3' incubated for 0.5 hrs by SpectraMax M2 microplate reader analysis; type: nucleic-acid assay
Quadruplex DNA [4] = assay: Binding affinity to human G4-quadruplex 22AG DNA 5'- AGGGTTAGGGTTAGGGTTAGGG -3' assessed as change in fluorescence intensity at 1 uM incubated for 0.5 hrs in presence of different concentrations of DNA by fluorescence spectra analysis; type: nucleic-acid assay
Quadruplex DNA [5] = assay: Binding affinity to human G4-quadruplex Bcl2 DNA 5'- CGGGCGCGGGAGGAAGGGGGCGGGAGC-3' assessed as change in fluorescence intensity at 1 uM incubated for 0.5 hrs in presence of different concentrations of DNA by fluorescence spectra analysis; type: nucleic-acid assay
Quadruplex DNA [6] = assay: Binding affinity to human G4-quadruplex KRAS DNA 5'- AGGGCGGTGTGGGAAGAGGGAAGAGGGGGAGG-3' at 20 uM by UV-Visible absorption spectroscopic analysis; type: nucleic-acid assay
Quadruplex DNA [7] = assay: Binding affinity to human G4-quadruplex VEGF DNA 5'- GGGCGGGCCGGGGGCGGG-3' at 20 uM by UV-Visible absorption spectroscopic analysis; type: nucleic-acid assay
A-375 [8] = assay: Induction of apoptosis in human A-375 cells assessed assessed as necrotic cells at 5 uM incubated for 24 hrs by Annexin V-Elab Fluor 647/propidium iodide staining based flow cytometry (reference value: 1.45 %); type: functional
dsDNA [9] = assay: Binding affinity to double stranded DNA AT15 (unknown origin) incubated for 0.5 hrs in presence of different concentration DNA by fluorescence spectra analysis; type: nucleic-acid assay
A-375 [10] = assay: Induction of apoptosis in human A-375 cells assessed assessed as viable cells at 5 uM incubated for 24 hrs by Annexin V-Elab Fluor 647/propidium iodide staining based flow cytometry (reference value: 91.1 %); type: functional; conditions: read-out: Activity
Quadruplex DNA [11] = assay: Binding affinity to human G4-quadruplex KRAS DNA 5'- AGGGCGGTGTGGGAAGAGGGAAGAGGGGGAGG-3' assessed as change in fluorescence intensity at 1 uM incubated for 0.5 hrs by fluorescence spectra analysis; type: nucleic-acid assay
Quadruplex DNA [12] = assay: Binding affinity to human G4-quadruplex 22AG DNA 5'- AGGGTTAGGGTTAGGGTTAGGG -3' assessed as change in fluorescence intensity at 1 uM incubated for 0.5 hrs by fluorescence spectra analysis; type: nucleic-acid assay
dsDNA [13] = assay: Binding affinity to double stranded DNA AT12 (unknown origin) incubated for 0.5 hrs in presence of different concentration DNA by fluorescence spectra analysis; type: nucleic-acid assay
Quadruplex DNA [14] = assay: Displacement of ThT from human G4-quadruplex 22AG DNA 5'- AGGGTTAGGGTTAGGGTTAGGG -3' incubated for 0.5 hrs by SpectraMax M2 microplate reader analysis; type: nucleic-acid assay
Quadruplex DNA [15] = assay: Displacement of ThT from human G4-quadruplex VEGF DNA 5'- GGGCGGGCCGGGGGCGGG-3' incubated for 0.5 hrs by SpectraMax M2 microplate reader analysis; type: nucleic-acid assay
Calf thymus DNA = assay: Displacement of Hoechst 33342 from calf thymus DNA incubated for 0.5 hrs by SpectraMax M2 microplate reader analysis; type: nucleic-acid assay, Bos taurus
Quadruplex DNA [16] = assay: Binding affinity to human G4-quadruplex Pu27 DNA 5'- TGGGGAGGGTGGGGAGGGTGGGGAAGG-3' assessed as change in fluorescence intensity at 1 uM incubated for 0.5 hrs by fluorescence spectra analysis; type: nucleic-acid assay
Salmon testes DNA = assay: Displacement of Hoechst 33342 from salmon sperm DNA incubated for 0.5 hrs by SpectraMax M2 microplate reader analysis; type: nucleic-acid assay, Salmo salar
Quadruplex DNA [17] = assay: Binding affinity to human G4-quadruplex c-kit2 DNA 5'- CGGGCGGGCGCGAGGGAGGGT-3' at 20 uM by UV-Visible absorption spectroscopic analysis; type: nucleic-acid assay
dsDNA [18] = assay: Binding affinity to double stranded DNA ssab (unknown origin) assessed as change in fluorescence intensity at 1 uM incubated for 0.5 hrs by fluorescence spectra analysis; type: nucleic-acid assay
dsDNA [19] = assay: Binding affinity to double stranded DNA AT15-6AT (unknown origin) incubated for 0.5 hrs in presence of different concentration DNA by fluorescence spectra analysis; type: nucleic-acid assay
Quadruplex DNA [20] = assay: Binding affinity to human G4-quadruplex Oxy28 DNA 5'- GGGGTTTTGGGGTTTTGGGGTTTTGGGG -3' at 10 uM by CD spectra analysis; type: nucleic-acid assay
dsDNA [21] = assay: Binding affinity to double stranded DNA AT9 (unknown origin) incubated for 0.5 hrs in presence of different concentration DNA by fluorescence spectra analysis; type: nucleic-acid assay
Quadruplex DNA [22] = assay: Binding affinity to human G4-quadruplex Oxy28 DNA 5'- GGGGTTTTGGGGTTTTGGGGTTTTGGGG -3' assessed as change in fluorescence intensity at 1 uM incubated for 0.5 hrs by fluorescence spectra analysis; type: nucleic-acid assay
dsDNA [23] = assay: Binding affinity to double stranded DNA ssab3 (unknown origin) incubated for 0.5 hrs in presence of different concentration DNA by fluorescence spectra analysis; type: nucleic-acid assay
dsDNA [24] = assay: Binding affinity to double stranded DNA AT15-4AT (unknown origin) incubated for 0.5 hrs in presence of different concentration DNA by fluorescence spectra analysis; type: nucleic-acid assay
A-375 [25] = assay: Inhibition of RNA synthesis in human A-375 cells at 5 uM incubated for 24 hrs by EU incorporation based flow cytometry analysis; type: functional, cell-based
Quadruplex DNA [26] = assay: Binding affinity to human G4-quadruplex Pu27 DNA 5'- TGGGGAGGGTGGGGAGGGTGGGGAAGG-3' at 20 uM by UV-Visible absorption spectroscopic analysis; type: nucleic-acid assay
dsDNA [27] = assay: Binding affinity to double stranded DNA AT17 (unknown origin) incubated for 0.5 hrs in presence of different concentration DNA by fluorescence spectra analysis; type: nucleic-acid assay
Quadruplex DNA [28] = assay: Binding affinity to human G4-quadruplex Oxy28 DNA 5'- GGGGTTTTGGGGTTTTGGGGTTTTGGGG -3' at 20 uM by UV-Visible absorption spectroscopic analysis; type: nucleic-acid assay
Quadruplex DNA [29] = assay: Binding affinity to human G4-quadruplex c-kit2 DNA 5'- CGGGCGGGCGCGAGGGAGGGT-3' assessed as change in fluorescence intensity at 1 uM incubated for 0.5 hrs by fluorescence spectra analysis; type: nucleic-acid assay
dsDNA [30] = assay: Displacement of Hoechst 33342 from double stranded DNA ssab (unknown origin) incubated for 0.5 hrs by SpectraMax M2 microplate reader analysis; type: nucleic-acid assay
Quadruplex DNA [31] = assay: Binding affinity to human G4-quadruplex Bcl2 DNA 5'- CGGGCGCGGGAGGAAGGGGGCGGGAGC-3' assessed as change in fluorescence intensity at 1 uM incubated for 0.5 hrs by fluorescence spectra analysis; type: nucleic-acid assay

Row | SMILES | Kd (Quadruplex DNA [1]) [nM] | EC50 (dsDNA [2]) [nM] | Kd (Quadruplex DNA [3]) [nM] | Kd (Quadruplex DNA [5]) [nM] | Activity (Quadruplex DNA [6]) | Activity (Quadruplex DNA [7]) | Activity (A-375 [8]) [%] | viability at 5 µM (A-375 [10]) [%] | Activity (Quadruplex DNA [11]) | Activity (Quadruplex DNA [12]) | EC50 (dsDNA [13]) [nM] | DC50 (Quadruplex DNA [14]) [nM] | DC50 (Quadruplex DNA [15]) [nM] | DC50 (Calf thymus DNA) [nM] | Activity (Quadruplex DNA [16]) | DC50 (Salmon testes DNA) [nM] | Activity (Quadruplex DNA [17]) | Activity (dsDNA [18]) | EC50 (dsDNA [19]) [nM] | Activity (Quadruplex DNA [20]) | further results
1 | COc1ccc2cc3[n+](cc2c1OC)CCc1cc2c(cc1-3)OCO2 [BERBERINE] | 5400 | 450 | 1840 | 2440 | Active | Active | 56.1 | 35.4 | Active | Active | 130 | 23500 | 580 | 30700 | Active | 56600 | Active | inactive | 400 | inactive | Kd (Quadruplex DNA [4]): 15600 nM; Activity (dsDNA [9]): inactive; Activity (dsDNA [21]): inactive; Activity (Quadruplex DNA [22]): Active; EC50 (dsDNA [23]): 230 nM; EC50 (dsDNA [24]): 230 nM; inhibition (A-375 [25]): inactive; Activity (Quadruplex DNA [26]): Active; EC50 (dsDNA [27]): 720 nM; Activity (Quadruplex DNA [28]): Active; Activity (Quadruplex DNA [29]): Active; DC50 (dsDNA [30]): 22100 nM; Activity (Quadruplex DNA [31]): Active
2 | COc1ccc2c(c[n+](C)c3c4cc5c(cc4ccc23)OCO5)c1OC [CHELERYTHRINE] | 5290 | 970 | 860 | 5800 | Active | Active | 6.96 | 56 | Active | Active | 2110 | 3040 | 410 | 6700 | Active | 6470 | Active | Active | 1090 | inactive | Activity (Quadruplex DNA [4]): inactive; EC50 (dsDNA [9]): 1130 nM; Activity (dsDNA [21]): inactive; Activity (Quadruplex DNA [22]): Active; EC50 (dsDNA [23]): 1290 nM; EC50 (dsDNA [24]): 1150 nM; inhibition (A-375 [25]): Active; Activity (Quadruplex DNA [26]): Active; EC50 (dsDNA [27]): 3890 nM; Activity (Quadruplex DNA [28]): Active; Activity (Quadruplex DNA [29]): Active; DC50 (dsDNA [30]): 3490 nM; Activity (Quadruplex DNA [31]): Active
3 | c1c2c(cc3c1OCO3)-c1cc3ccc4c(c3c[n+]1CC2)OCO4 [COPTISINE] | 2170 | 9390 | 350 | 1150 | Active | Active | 84.6 | 0.022 | Active | Active | 18500 | 1970 | 120 | 31400 | Active | 38100 | Active | inactive | 8040 | inactive | Kd (Quadruplex DNA [4]): 5930 nM; EC50 (dsDNA [9]): 1690 nM; EC50 (dsDNA [21]): 7120 nM; Activity (Quadruplex DNA [22]): Active; EC50 (dsDNA [23]): 5840 nM; EC50 (dsDNA [24]): 5570 nM; inhibition (A-375 [25]): inactive; Activity (Quadruplex DNA [26]): Active; EC50 (dsDNA [27]): 7780 nM; Activity (Quadruplex DNA [28]): Active; Activity (Quadruplex DNA [29]): Active; DC50 (dsDNA [30]): 23000 nM; Activity (Quadruplex DNA [31]): Active
4 | C[n+]1cc2c3c(ccc2c2ccc4cc5c(cc4c21)OCO5)OCO3 [SANGUINARIUM] | 7190 | 790 | 440 | 11000 | Active | Active | 29.3 | 20.4 | Active | Active | 4150 | 2760 | 140 | 5870 | Active | 5700 | Active | Active | 1230 | inactive | Activity (Quadruplex DNA [4]): inactive; EC50 (dsDNA [9]): 610 nM; Activity (dsDNA [21]): inactive; Activity (Quadruplex DNA [22]): Active; EC50 (dsDNA [23]): 1480 nM; EC50 (dsDNA [24]): 770 nM; inhibition (A-375 [25]): Active; Activity (Quadruplex DNA [26]): Active; EC50 (dsDNA [27]): 2330 nM; Activity (Quadruplex DNA [28]): Active; Activity (Quadruplex DNA [29]): Active; DC50 (dsDNA [30]): 3210 nM; Activity (Quadruplex DNA [31]): Active
